# Read-outs that look alike come from different tables or passages of the source.
# Legend:
# wild type DHB4 E. coli = experiment: Bacterial inhibition by ebselen derivates, MIC; conditions: for MIC: Escherichia coli, DHB4E.COLI, 4 h, read-out: MIC for wild type DHB4 E. coli; for MIC for wild type DHB4 E. coli: LB, 37° C., 4 hrs, OD600 below 10% of DMSO control; for sensitivity of gshA^− or gor^− strains compared with wt strain: E. coli DHB4 strains
# Method: (§5) E. coli DHB4 strains wt, gshA^−, gor^−, oxyR^− were cultured overnight in LB medium. […] OD 600 was detected and DMSO was used as the control. […] The data are the means of two experiments.
# Gor^- DHB4 E. coli = experiment: Bacterial inhibition by ebselen derivates, MIC; conditions: for MIC: Escherichia coli, 4 h, read-out: MIC for Gor^- DHB4 E. coli; for MIC for Gor^- DHB4 E. coli: LB, 37° C., 4 hrs, OD600 below 10% of DMSO control
# Method: as §5
# E. coli TrxR [1] = target: T1, E. coli TrxR (Escherichia coli (strain K12), UniProt P0A9P4); experiment: Measurement of Ki of ebselen derivates for E. coli TrxR (Dixon plot, DTNB assay); assay type: biochemical
# Method: The detailed inhibition studies using 0.001-4 μM inhibitor were performed in quartz cuvettes and the assay mixture of 500 μL containing E. coli TrxR (6 nM), E. coli Trx (1 or 2 or 4 μM), NADPH (240 μM), and DTNB (1 mM using Zeiss or Ultrospec 3000 Uv-visible spectrophotometer. E. coli TrxR activities were subsequently determined using the standard DTNB assay.
# (§1) All the benzisoselenazol-3(2H)-one and bisbenzisoselenazol-3(2H)-one derivatives were tested as potential E. coli TrxR inhibitors by standard DTNB assay. IC50 values were calculated by following the activity of TrxR reducing DTNB by NADPH at 412 nm. The reactions were started by adding 1 mM DTNB to the mixture of 100 nM TrxR, 2 μM Trx, 240 μM NADPH, and different concentration of inhibitor (1-40 μM). […] The reactions were started by adding 6 nM TrxR at room temperature. Inhibition constants (Ki) for all the compounds were measured from Dixon plot (FIGS. 12A-12F), which plots 1/v versus [I] (v=A412/min, I=Inhibitor concentration, FIGS. 12A-12F). Measured IC50 and Ki values (Table 5) indicate that the compounds EbSe 6-9, 12-16 are potent inhibitors for E. coli TrxR. The presence of covalent bond between selenium and nitrogen is so important for the biological property of ebselen derivatives.
# E. coli TrxR [2] = target: T1, E. coli TrxR; experiment: Measurement of IC50 of ebselen derivates for E. coli TrxR (DTNB assay); assay type: biochemical
# Method: For screening of different classes of ebselen derivatives as inhibitors of E. coli TrxR, the compounds of different concentration (1-40 μM) were incubated for a minute with mixture containing 100 nM E. coli TrxR, 200 μM NADPH and 2 μM of E. coli Trx. Then 1 mM DTNB was added and the enzyme activity was followed by the initial linear increase at A412 for 5 minutes.
# as §1
# gshA^- DHB4 E. coli = experiment: Bacterial inhibition by ebselen derivates, MIC; conditions: LB, 37° C., 4 hrs, OD600 below 10% of DMSO control
# Method: as §5
# Mammalian TrxR [3] = target: Mammalian TrxR (Bos taurus (Bovine), UniProt O62768); experiment: Compounds as substrates of mammalian (calf thymus) TrxR, NADPH consumption; assay type: biochemical
# Method: (§2) FIGS. 6A and 6B show ebselen and its sulphur analogue, PZ25, as substrates of calf-thymus TrxR and PZ25 as substrate of E. coli TrxR. In FIG. 6A, 10 μM of ebselen (▴) and 10 μM of PZ25 (▪) were used as substrate of 25 nM calf thymus TrxR. In FIG. 6B, 10 μM of PZ25 was used as substrate for 10 nM calf thymus TrxR (◯) and 10 nM of E. coli TrxR (●). Reactions were started by adding enzymes in cuvettes containing 500 μl TE buffer with 100 μM NADPH, of which the consumption were followed by the changes of the absorption at 340 nm against identical blank without enzymes.
# Ebselen diselenide (Δ) and PZ25 disulfide (◯) were reduced with 10 nM calf thymus TrxR, while PZ25 disulphide was reduced by 10 nM of E. coli TrxR (●). Reactions were started by adding enzymes to cuvettes containing 500 μl TE buffer with 100 μM NADPH and 16 μM compounds. The NADPH consumption was followed by the changes of the absorption at 340 nm against identical blank without enzymes.
# (§3) The activity of the enzyme was determined at room temperature using an Ultrospec 3000 UV/Visual spectrophotometer (Amersham Biosciences). Measurements of TrxR activity from both calf thymus and E. coli were performed in a buffer containing 50 mM Tris-Cl, 1 mM EDTA, pH 7.5, generally with 100 μM NADPH and the indicated amount of the drugs. The enzyme-catalysed reactions were followed at 340 nm using the standard calculation of NADPH oxidation to NADP^+ with a molar extinction coefficient of 6200 M^−1 cm^−1 (32, 34). The conditions of the assay of bacterial thioredoxin reductase have been described (32, 34) using either 1 mM DTNB or 160 μM insulin as a substrate. In DTNB coupled assays, 240 μM NADPH and 1 mM DTNB were used in the TE buffer and formation of the TNB was measured at 412 nm, where TNB has an extinction coefficient of 13600 M^−1 cm^−1.
# E. coli TrxR [4] = target: T1, E. coli TrxR; assay type: biochemical
# Method: as §2, with “In” for “FIGS. 6A and 6B show ebselen and its sulphur analogue, PZ25, as substrates of calf-thymus TrxR and PZ25 as substrate of E. coli TrxR. In”
# Reactions were started by adding enzymes to cuvettes containing 500 μl TE buffer with 100 μM NADPH and 16 μM compounds. The NADPH consumption was followed by the changes of the absorption at 340 nm against identical blank without enzymes.
# as §3, with “Measurements of TrxR activity from both calf thymus and E. coli were performed in a buffer containing 50 mM Tris-Cl, 1 mM EDTA, pH 7.5, generally with 100 μM NADPH and the indicated amount of the drugs.” left out
# (§4) Further we examined the effect of ebselen in the reduction of disulphide by E. coli Trx and TrxR using both DTNB and insulin as substrates. […] FIGS. 4A and 4B show the effect of ebselen (4A) and ebselen diselenide (4B) on DTNB reduction by E. coli thioredoxin and thioredoxin reductase. Assays in semi-microcuvettes with 0.5 ml solution contained 0.24 mM NADPH, 1 mM DTNB in 50 mM Tris-Cl/1 mM EDTA, pH 7.5 buffer. (A) In the presence of 2 μM (grey filled points), 5 μM (white filled points) and 10 μM (black filled points) of E. coli Trx and 7.6 nM of E. coli TrxR with ebselen at concentrations of zero (squares), 0.5 μM (triangles), 1 μM (rhombus), and 2 μM (rounds), the increase in A412 was measured against a blank. (B) In the presence of 2 μM (grey filled points), 5 μM (white filled points) and 10 μM (black filled points) of E. coli Trx and 10 nM of E. coli TrxR, with ebselen diselenide at concentrations of zero (squares), 1 μM (triangles) and 2 μM (rounds), the increase in A412 was measured against a blank.
# Staphylococcus aureus = conditions: compared with PZ51; cited from earlier work
# H. pylori TrxR = H. pylori TrxR (Helicobacter pylori (strain ATCC 700392 / 26695) (Campylobacter pylori), UniProt P56431); experiment: Inhibition of H. pylori TrxR by ebsulfur, insulin reduction assay; assay type: biochemical; conditions: 4, 20, and 40 μM
# Method: H. pylori TrxR activity was followed by insulin reduction after 4 μM of H. pylori Trx addition, where a decrease in absorbance at 340 nm represents activity.
# H. pylori strains = experiment: Inhibition of the growth of H. pylori by PZ-25 (ebsulfur); assay type: cell-based
# E. coli TrxR [5] = target: T1, E. coli TrxR; experiment: Inhibition of E. coli TrxR reduction of Trx, DTNB coupled assay (Lineweaver-Burk); assay type: biochemical
# Method: FIGS. 4A and 4B show the effect of ebselen (FIG. 4A) and ebselen diselenide (FIG. 4B) on DTNB reduction by E. coli thioredoxin and thioredoxin reductase. Assays were contained in 0.50 ml semi-microcuvettes containing 0.24 mM NADPH, 1 mM DTNB in 0.10 M Tris-Cl, pH 8.0, 1 mM EDTA. The increase in A412 was measured against a blank using 10 nM E. coli TrxR in the presence of 2 μM (grey filled points), 5 μM (white filled points), 10 μM (black filled points) E. coli Trx with 0 (squares), 0.5 μM (triangles), 1 μM (rhombus), 2 μM (rounds) of ebselen or ebselen diselenide.
# (A) Ebselen concentrations were 0 μM (▴), 0.5 μM (∀), 1 μM (▪) and 2 μM (Δ). […] (B) Ebselen concentrations were 0 μM (▴), 1 μM (▪) and 2 μM (∀).
# as §3, with “Measurements of TrxR activity from both calf thymus and E. coli were performed in a buffer containing 50 mM Tris-Cl, 1 mM EDTA, pH 7.5, generally with 100 μM NADPH and the indicated amount of the drugs.” left out
# as §4
# E. coli Trx-(SH)2 = E. coli Trx-(SH)2 (Escherichia coli (strain K12), UniProt P0AA25); conditions: fluorescence spectroscopy; cited from earlier work
# Mammalian TrxR [6] = conditions: from reference; cited from earlier work
# [7] = 100 nM TrxR, 2 μM Trx, 1 mM DTNB, read-out: IC50 for E. coli TrxR
# [8] = 6 nM TrxR, Trx 1, 2 or 4 μM, Dixon plot, read-out: Ki for E. coli TrxR
# Chain of Mammalian TrxR (Bos taurus (Bovine), UniProt O62768) (O62768 whole entry, looked up): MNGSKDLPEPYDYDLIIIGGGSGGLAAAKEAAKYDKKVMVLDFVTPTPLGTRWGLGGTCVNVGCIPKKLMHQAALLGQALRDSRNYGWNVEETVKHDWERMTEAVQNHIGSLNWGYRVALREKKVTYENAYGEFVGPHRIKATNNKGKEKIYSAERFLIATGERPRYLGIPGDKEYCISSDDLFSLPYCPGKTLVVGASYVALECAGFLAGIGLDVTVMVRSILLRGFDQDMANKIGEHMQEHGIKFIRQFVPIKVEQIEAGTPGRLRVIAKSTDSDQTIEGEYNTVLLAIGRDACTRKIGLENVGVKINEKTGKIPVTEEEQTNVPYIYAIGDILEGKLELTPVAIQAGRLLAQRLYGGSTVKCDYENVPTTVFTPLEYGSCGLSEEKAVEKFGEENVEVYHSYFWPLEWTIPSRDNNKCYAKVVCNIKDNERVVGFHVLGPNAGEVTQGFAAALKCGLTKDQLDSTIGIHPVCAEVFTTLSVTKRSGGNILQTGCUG
# T1 sequence (P0A9P4 2-321 limits assumed): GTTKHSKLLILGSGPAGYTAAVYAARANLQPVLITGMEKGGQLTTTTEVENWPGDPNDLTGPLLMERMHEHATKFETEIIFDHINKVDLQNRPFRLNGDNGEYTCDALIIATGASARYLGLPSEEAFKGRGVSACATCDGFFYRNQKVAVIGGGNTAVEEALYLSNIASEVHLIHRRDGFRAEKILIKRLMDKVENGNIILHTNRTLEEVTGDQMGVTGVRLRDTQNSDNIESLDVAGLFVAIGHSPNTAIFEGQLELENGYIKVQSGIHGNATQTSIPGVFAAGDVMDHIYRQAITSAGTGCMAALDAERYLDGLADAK
# Chain of H. pylori TrxR (P56431 whole entry, looked up): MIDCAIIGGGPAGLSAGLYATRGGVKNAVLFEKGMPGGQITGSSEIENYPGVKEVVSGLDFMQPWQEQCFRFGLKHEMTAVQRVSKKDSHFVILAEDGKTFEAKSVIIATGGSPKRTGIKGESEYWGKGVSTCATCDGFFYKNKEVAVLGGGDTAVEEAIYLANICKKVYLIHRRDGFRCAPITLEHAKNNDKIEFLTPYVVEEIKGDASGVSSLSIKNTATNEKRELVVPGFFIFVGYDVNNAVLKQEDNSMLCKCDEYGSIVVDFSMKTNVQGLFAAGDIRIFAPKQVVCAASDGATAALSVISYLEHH
compound,measurement,setting,value
O=c1c2ccccc2[se]n1-c1ccc(Cl)cc1 [EbSe 7],MIC,wild type DHB4 E. coli,34 µM
same,MIC,Gor^- DHB4 E. coli,23 µM
Cc1cc(Cl)ccc1-n1[se]c2ccccc2c1=O [EbSe 8],MIC,wild type DHB4 E. coli,47 µM
same,MIC,Gor^- DHB4 E. coli,24 µM
O=C(O)c1ccccc1-n1[se]c2ccccc2c1=O [EbSe 9],Ki,E. coli TrxR [1],1.2 µM
same,MIC,wild type DHB4 E. coli,49 µM
same,MIC,Gor^- DHB4 E. coli,31 µM
same,IC50,E. coli TrxR [2],7.5 µM
O=C(O)c1ccc(-n2[se]c3ccccc3c2=O)cc1 [EbSe 10],IC50,E. coli TrxR [2],15 µM
O=c1c2ccccc2[se]n1-c1ccc(Cl)cn1 [EbSe 11],MIC for wild type DHB4 E. coli,wild type DHB4 E. coli,No Inhibition
same,MIC for Gor^- DHB4 E. coli,Gor^- DHB4 E. coli,No Inhibition
same,MIC for gshA^- DHB4 E. coli,gshA^- DHB4 E. coli,No Inhibition
same,IC50,E. coli TrxR [2]; [7],> 40 µM
O=c1c2ccccc2[se]n1-c1ncccc1[N+](=O)[O-] [EbSe 12],Ki,E. coli TrxR [1]; [8],0.25 µM
same,MIC for wild type DHB4 E. coli,wild type DHB4 E. coli,No Inhibition
same,MIC for Gor^- DHB4 E. coli,Gor^- DHB4 E. coli,No Inhibition
same,MIC for gshA^- DHB4 E. coli,gshA^- DHB4 E. coli,No Inhibition
same,IC50,E. coli TrxR [2]; [7],3 µM
O=c1c2ccccc2[se]n1-c1ccncc1 [EbSe 13],MIC,wild type DHB4 E. coli,45 µM
same,MIC,Gor^- DHB4 E. coli,24 µM
O=c1c2ccccc2[se]n1CCn1[se]c2ccccc2c1=O [EbSe 14],sensitivity of gshA^− or gor^− strains compared with wt strain,wild type DHB4 E. coli,same sensitivity
same,MIC,wild type DHB4 E. coli,23 µM
same,MIC,Gor^- DHB4 E. coli,19 µM
O=c1c2ccccc2[se]n1CCCn1[se]c2ccccc2c1=O [EbSe 15],Ki,E. coli TrxR [1]; [8],0.04 µM
O=c1c2ccccc2[se]n1CCCCCCn1[se]c2ccccc2c1=O [EbSe 16],sensitivity of gshA^− or gor^− strains compared with wt strain,wild type DHB4 E. coli,same sensitivity
same,MIC,wild type DHB4 E. coli,20 µM
same,MIC,Gor^- DHB4 E. coli,35 µM
O=C(Nc1ccccc1)c1ccccc1SSc1ccccc1C(=O)Nc1ccccc1 [PZ25 disulphide],Km,Mammalian TrxR [3],47 µM
same,kcat,Mammalian TrxR [3],25 s⁻¹
same,kcat/KM,Mammalian TrxR [3],533000 M⁻¹ s⁻¹
same,Km,E. coli TrxR [4]; E. coli TrxR,27.6 µM
same,kcat,E. coli TrxR [4]; E. coli TrxR,1.67 s⁻¹
same,kcat/KM,E. coli TrxR [4]; E. coli TrxR,60500 M⁻¹ s⁻¹
O=c1c2ccccc2sn1-c1ccccc1 [PZ25],antibacterial activity of the sulphur analogue,Staphylococcus aureus,lost the antibacterial activity
same,Km,Mammalian TrxR [3],2.5 µM
same,kcat,Mammalian TrxR [3],23.33 s⁻¹
same,kcat/KM,Mammalian TrxR [3],9.33e+06 M⁻¹ s⁻¹
same,H. pylori TrxR activity,H. pylori TrxR,inhibited
same,MIC,H. pylori strains; NCTC11637 strain,1.56 µg/mL
same,MIC,H. pylori strains; strain YS-16,0.39 µg/mL
same,kcat,E. coli TrxR [4]; E. coli TrxR,11.7 s⁻¹
same,kcat/KM,E. coli TrxR [4]; E. coli TrxR,4.67e+06 M⁻¹ s⁻¹
same,inhibition of E. coli TrxR (in words),E. coli TrxR [5],not inhibitors
O=C(Nc1ccccc1)c1ccccc1[Se][Se]c1ccccc1C(=O)Nc1ccccc1 [ebselen diselenide],second-order rate constant of reaction with reduced E. coli Trx,E. coli Trx-(SH)2,1700 M⁻¹ s⁻¹
same,Km,Mammalian TrxR [6],40 µM
same,kcat,Mammalian TrxR [6],1.32 s⁻¹
same,kcat/KM,Mammalian TrxR [6],33000 M⁻¹ s⁻¹
same,oxidation of NADPH when directly added to E. coli TrxR and NADPH,E. coli TrxR [4],no oxidations of NADPH
same,inhibition of E. coli TrxR (in words),E. coli TrxR [5],strongly inhibited
same,Ki,"E. coli TrxR [5]; Ki (competitive inhibitor of Trx reduction by E. coli TrxR), from Lineweaver-Burk slopes",0.46 ± 0.05 µM
same,Ki,"E. coli TrxR [5]; read-out: Ki (competitive inhibitor of Trx reduction by E. coli TrxR), from Lineweaver-Burk slopes",0.46 µM
